Laboratory results: the NIST ThermoML archive (doi:10.1007/s10765-012-1309-7)

Conditions: Liquid, Capillary tube (Ostwald / Ubbelohde) method

CC(C)C [2-methylpropane]
Conditions | kinematic viscosity [m2/s]
285.13 K | 3.1e-07
290.11 K | 2.95e-07
295.11 K | 2.87e-07
300.41 K | 2.72e-07
303.37 K | 2.67e-07
309.08 K | 2.55e-07
313.12 K | 2.46e-07
315.07 K | 2.42e-07
318.2 K | 2.38e-07
320.12 K | 2.35e-07
323.83 K | 2.25e-07
326.11 K | 2.21e-07
330.11 K | 2.14e-07
333.14 K | 2.07e-07
335.12 K | 2.09e-07
340.12 K | 1.97e-07
340.15 K | 1.97e-07
345.15 K | 1.9e-07

CCF [fluoroethane]
Conditions | kinematic viscosity [m2/s]
233.15 K | 2.93e-07
238.15 K | 2.81e-07
243.15 K | 2.7e-07
248.11 K | 2.58e-07
253.15 K | 2.46e-07
258.12 K | 2.37e-07
263.17 K | 2.28e-07
268.16 K | 2.17e-07
273.16 K | 2.09e-07
278.16 K | 2.01e-07
283.15 K | 1.92e-07
288.13 K | 1.85e-07
293.18 K | 1.78e-07
298.15 K | 1.72e-07
303.12 K | 1.66e-07
308.11 K | 1.62e-07
313.15 K | 1.54e-07
318.15 K | 1.51e-07
320.16 K | 1.49e-07
328.16 K | 1.41e-07
333.15 K | 1.37e-07
338.15 K | 1.31e-07
343.13 K | 1.28e-07
348.15 K | 1.23e-07
353.17 K | 1.21e-07
355.16 K | 1.2e-07
360.16 K | 1.16e-07
366.08 K | 1.12e-07
371.36 K | 1.08e-07
